Patent US8420657B2 (Novartis AG, priority 2008, dated 2013)
pIC50: −log10 of the molar value.

Key:
GST-JAK2(808-1132) = molecular target: T1, GST-JAK2(808-1132) (Homo sapiens, UniProt O60674); assay: JAK2 kinase assay (Caliper mobility shift, LabChip 3000); assay type: biochemical
T1 construct: GST-JAK2(808-1132); purchased Invitrogen (Carlsbad, USA) #4288
Method in brief: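 Eight-point compound series (final 10–0.003 μM) tested on purchased GST-JAK2 kinase domain (808-1132). Peptide FITC-JAK3tide plus ATP reacted 60 min, 30 °C, then quenched with EDTA; turnover from charge-based separation of substrate and product.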

[1] = test system: JAK2-dependent nuclear translocation of STAT5-GFP in U-2 OS osteosarcoma cells; assay: STAT5 nuclear translocation assay (Cellomics), rhEpo stimulated U-2 OS STAT5-GFP cells; assay type: cell-based; details: Homo sapiens, U2OS; STAT5 translocation pathway
Text: The medium-throughput (96-well format) cellular automated fluorescence microscopy Cellomics assay can be routinely used to assess the functional activation of Janus Kinases (JAKs), based on the nuclear translocation of their substrate, Signal Transducer and Activator of Transcription (STAT). Nuclear translocation can be monitored either in HT1080 fibrosarcoma cells stably transfected with STAT1 fused to Green Fluorescence Protein (GFP) or in U-2 OS osteosarcoma cells stably transfected with STAT5 fused to Green Fluorescence Protein (GFP). Stimulation of HT1080 cells with interferon-γ (IFN-γ) results in JAK1/JAK2-dependent nuclear translocation of STAT1-GFP, whereas stimulation of U-2 OS cells with recombinant human erythropoietin (rhEpo) results in JAK2-dependent nuclear translocation of STAT5-GFP, both of which can be quantified using the Cellomics Cyto/NucTrans software package. This assay may be used to provide an assessment of the nuclear-cytoplasmic differential (NCD) of STAT-GFP using Hoechst dye to define the boundaries of the nucleus.
U-2 OS osteosarcoma cells may be obtained from ATCC and can be cultured in standard RPMI medium supplemented with 10% FCS and 2 mM L-glutamine. Cells can be stably transfected with STAT5a-GFP using Lipofectamine following the manufacturers' protocol. 24 hours after transfection the medium can be replaced and selected in 400 μg/ml Geneticin. Subsequently, cells can be stably transfected with EpoR using Lipofectamine following the manufacturers' protocol. 24 hours after transfection the medium can be replaced and cells selected in 100 μg/ml Hygromycin B.
Compounds can be dissolved in DMSO to a final stock concentration of 10 mM and stored as aliquots at 4° C. Compounds may be pre-diluted in 100% DMSO at 10 mM, 3 mM 1 mM, 0.3 mM, 0.1 mM, 0.03 mM, 0.01 mM and 0.003 mM. Subsequently, compounds may be diluted in medium and added in 50 μl to the cells. The final compound concentrations tested may be 10 μM, 3 μM 1 μM, 0.3 μM, 0.1 μM, 0.03 μM, 0.01 μM and 0.003 μM and the final DMSO concentration can be 0.1%.
U-2 OS may be seeded at a cell density of 12,000 cells per well in clear-bottom black 96-well Packard View-Plates™. The following day, medium can be removed and replaced with medium containing either the vehicle (DMSO) or increasing concentrations of test compounds for 30 minutes at 37° C. Cells can then be stimulated for 1 hour by adding 10 μl per well of 50 U/ml rhEpo to obtain 5 U/ml of rhEpo as the final concentration. Following treatments, cells can fixed and processed as described above.
The plates can be read on a Cellomics® ArrayscanII automated fluorescence microscope plate reader equipped with a Mercury-Xenon white light illumination source and a Zeiss Axiovert inverted microscope, using the XF100 dichroic/emission filter cube and matching excitation filters, 10× magnification, and a 0.3 numerical aperture objective. Image acquisition and analysis can be performed using a customized protocol based on the ‘NuclearTranslocation’ Bioapplication. For each well, multiple images (fields) can be acquired until a minimum of 1000 cells are counted using two 2 channels: Channel 1 (Hoechst)=focus+nuclear mask, Channel 2 (GFP)=signal quantification in mask areas as outlined below. Nuclei may be first identified based on the Hoechst staining and a mask generated for each nucleus that then serves as a template to generate a circle (eroded inwards by 1 pixel) and a 3 pixel-wide collar-like ring (off-set outwards by 1 pixel), in which the nuclear and cytoplasmic intensity of GFP, respectively, are quantified in the corresponding channel. High content analysis yields numerous measurements per cell and the GFP intensity differential between the nuclear and the cytoplasmic masks may be chosen as a measure of sub-cellular STAT-GFP relocation. The resulting values may be averaged for all cells in the well to return a single measurement plus standard deviation. […]

[2] = test system: JAK1/JAK2-dependent nuclear translocation of STAT1-GFP in HT1080 fibrosarcoma cells; assay: STAT1 nuclear translocation assay (Cellomics), IFN-γ stimulated HT1080 STAT1-GFP cells; assay type: cell-based; details: Homo sapiens, HT-1080, STAT1 translocation pathway
Method in brief: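 IC50 derived from percent nuclear STAT1-GFP translocation, computed from nuclear minus cytoplasmic GFP intensity against untreated baseline and DMSO-stimulated control. Stable HT1080 STAT1-GFP cells received compound (0.003–10 μM, 0.1% DMSO) 30 min ahead of a 2 h 100 ng/ml IFN-γ stimulus, then fixation and Hoechst nuclear masking.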

T1 sequence (O60674 808-1132): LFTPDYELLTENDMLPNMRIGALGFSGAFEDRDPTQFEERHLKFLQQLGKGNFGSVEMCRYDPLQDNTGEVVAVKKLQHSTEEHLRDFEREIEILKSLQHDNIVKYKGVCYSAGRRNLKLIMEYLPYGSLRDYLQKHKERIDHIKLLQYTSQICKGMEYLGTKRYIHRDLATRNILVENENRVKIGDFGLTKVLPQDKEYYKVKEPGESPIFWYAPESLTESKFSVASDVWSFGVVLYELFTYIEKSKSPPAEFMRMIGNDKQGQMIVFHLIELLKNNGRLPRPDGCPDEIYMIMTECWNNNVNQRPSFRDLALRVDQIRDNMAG

Row | SMILES | pIC50 (GST-JAK2(808-1132)) | pIC50 [1] | pIC50 [2]
1 | Cc1ccc(Nc2ncc3ccn(-c4cc(F)c(CN5CCOCC5)c(F)c4)c3n2)cc1CN1[C@H]2CC[C@@H]1CC2 [Example 436, [3-(7-Aza-bicyclo[2.2.1]hept-7-ylmethyl)-4-methyl-phenyl]-[7-(3,5-difluoro-4-morpholin-4-ylmethyl-phenyl)-7H-pyrrolo[2,3-d]pyrimidin-2-yl]-amine] | ≥ 8.52 | 8.21 | –
2 | Cc1ccc(Nc2ncc3ccn(-c4ccc(C(=O)N5CCS(=O)(=O)CC5)c(F)c4)c3n2)cc1CN1CCNC(C(F)(F)F)C1 (racemic) [Example 403] | ≥ 8.52 | 7.65 | –
3 | Cc1ccc(Nc2ncc3ccn(-c4cc(F)c(CN5CCOCC5)c(F)c4)c3n2)cc1Cn1cc(CO)nn1 [Example 419, (1-{5-[7-(3,5-Difluoro-4-morpholin-4-ylmethyl-phenyl)-7H-pyrrolo[2,3-d]pyrimidin-2-ylamino]-2-methyl-benzyl}-1H-[1 2,3]triazol-4-yl)-methanol] | 8.37 | 7.41 | –
4 | CCOc1ccc(Nc2ncc3ccn(-c4ccc(CC(=O)N5CCN(CC)CC5)cc4)c3n2)cc1OCC [Example 165, 2-{4-[2-(3,4-Diethoxy-phenylamino)-pyrrolo[2,3-d]pyrimidin-7-yl]-phenyl}-1-(4-ethyl-piperazin-1-yl)-ethanone] | > 8.52 | – | 6.90
5 | CC(C)Oc1ccc(Nc2ncc3ccn(-c4ccc(N5CCCC5=O)cc4)c3n2)cc1 [Example 105, 1-{4-[2-(4-Isopropoxy-phenylamino)-pyrrolo[2,3-d]pyrimidin-7-yl]-phenyl}-pyrrolidin-2-one] | 7.94 | – | 5.23
6 | Cc1ccc(Nc2ncc3ccn(-c4cc(F)c(CN5CCOCC5)c(F)c4)c3n2)cc1C [Example 289, [7-(3,5-Difluoro-4-morpholin-4-ylmethyl-phenyl)-7H-pyrrolo[2,3-d]pyrimidin-2-yl]-(3,4-dimethyl-phenyl)-amine] | > 7.77 | – | 6.64
7 | CCN1CCN(c2ccc(Nc3ncc4ccn(-c5ccc(CC(=O)N6CCS(=O)(=O)CC6)c(F)c5)c4n3)cc2C)CC1 [Example 292, 1-(1,1-Dioxido-thiomorpholin-4-yl)-2-(4-{2-[4-(4-ethyl-piperazin-1-yl)-3-methyl-phenylamino]-pyrrolo[2,3-d]pyrimidin-7-yl}-2-fluoro-phenyl)-ethanone] | > 8.52 | – | 7.90
8 | CN1CCN(C(=O)c2ccc(Nc3ncc4ccn(-c5ccc(S(C)(=O)=O)cc5)c4n3)cc2F)CC1 [Example 71, {2-Fluoro-4-[7-(4-methanesulfonyl-phenyl)-7H-pyrrolo[2,3-d]pyrimidin-2-ylamino]-phenyl}-(4-methyl-piperazin-1-yl)-methanone] | 8.17 | – | 6.44
9 | COc1ccc(Nc2ncc3ccn(-c4ccc(C(=O)N5CCOCC5)c(F)c4)c3n2)cn1 [Example 225, {2-Fluoro-4-[2-(6-methoxy-pyridin-3-ylamino)-pyrrolo[2,3-d]pyrimidin-7-yl]-phenyl}-morpholin-4-yl-methanone] | 8.13 | – | 6.36
10 | Fc1cc(-n2ccc3cnc(Nc4ccccc4)nc32)cc(F)c1CN1CCOCC1 [Example 208, [7-(3,5-Difluoro-4-morpholin-4-ylmethyl-phenyl)-7H-pyrrolo[2,3-d]pyrimidin-2-yl]-phenyl-amine] | 8.32 | – | 6.35
11 | O=C(c1ccc(-n2ccc3cnc(Nc4ccc(CN5CCOCC5)cc4)nc32)cc1F)N1CCOCC1 [Example 288, {2-Fluoro-4-[2-(4-morpholin-4-ylmethyl-phenylamino)-pyrrolo[2,3-d]pyrimidin-7-yl]-phenyl}-morpholin-4-yl-methanone] | > 8.52 | – | 7.17
12 | CS(=O)(=O)c1ccc(-n2ccc3cnc(Nc4cccc(C(=O)N5CCOCC5)c4)nc32)cc1 [Example 49, {3-[7-(4-Methanesulfonyl-phenyl)-7H-pyrrolo[2,3-d]pyrimidin-2-ylamino]-phenyl}-morpholin-4-yl-methanone] | 7.85 | – | 6.06
13 | Cc1ccc(Nc2ncc3ccn(-c4ccc(CN5CCOCC5)cc4)c3n2)cc1C [Example 160, (3,4-Dimethyl-phenyl)-[7-(4-morpholin-4-ylmethyl-phenyl)-7H-pyrrolo[2,3-d]pyrimidin-2-yl]-amine] | 7.38 | – | 6.01
14 | CS(=O)(=O)c1ccc(-n2ccc3cnc(Nc4ccc(CN5CCCCC5)cc4)nc32)cc1 [Example 42, [7-(4-Methanesulfonyl-phenyl)-7H-pyrrolo[2,3-d]pyrimidin-2-yl]-(4-piperidin-1-ylmethyl-phenyl)-amine] | 8.51 | – | 6.77
15 | COCc1ccc(Nc2ncc3ccn(-c4ccc(CN5CCOCC5)c(Cl)c4)c3n2)cc1 [Example 176, [7-(3-Chloro-4-morpholin-4-yl methyl-phenyl)-7H-pyrrolo[2,3-d]pyrimidin-2-yl]-(4-methoxymethyl-phenyl)-amine] | 8.14 | – | 5.81
16 | Cc1ccc(Nc2ncc3ccn(-c4ccc(CN5CCOCC5)cc4)c3n2)cc1Cl [Example 119, (3-Chloro-4-methyl-phenyl)-[7-(4-morpholin-4-ylmethyl-phenyl)-7H-pyrrolo[2,3-d]pyrimidin-2-yl]-amine] | 7.06 | – | 5.76
17 | Cc1ccc(Nc2ncc3ccn(-c4cc(F)c(C(=O)N5CCOCC5)c(F)c4)c3n2)cn1 [Example 219, {2,6-Difluoro-4-[2-(6-methyl-pyridin-3-ylamino)-pyrrolo[2,3-d]pyrimidin-7-yl]-phenyl}-morpholin-4-yl-methanone] | 8.11 | – | 6.29
18 | Fc1cc(-n2ccc3cnc(Nc4ccc(CN5CCNC6(CC6)C5)cc4)nc32)cc(F)c1CN1CCOCC1 [Example 256] | > 8.52 | – | 6.94
19 | CC(C)Oc1ccc(Nc2ncc3ccn(-c4ccc(C(=O)N5CCOCC5)cc4)c3n2)cn1 [Example 232] | 7.72 | – | 5.94
20 | CCN1CCN(Cc2ccc(-n3ccc4cnc(Nc5ccc(OC(C)C)cc5)nc43)cc2F)CC1 [Example 106, {7-[4-(4-Ethyl-piperazin-1-ylmethyl)-3-fluoro-phenyl]-7H-pyrrolo[2,3-d]pyrimidin-2-yl}-(4-isopropoxy-phenyl)-amine] | 7.48 | – | 5.08
21 | COCCn1cc(Nc2ncc3ccn(-c4cc(F)c(C(=O)N5CCOCC5)c(F)c4)c3n2)cn1 [Example 251, (2,6-Difluoro-4-{2-[1-(2-methoxy-ethyl)-1H-pyrazol-4-ylamino]-pyrrolo[2,3-d]pyrimidin-7-yl}-phenyl)-morpholin-4-yl-methanone] | 8.21 | – | 6.35
22 | Cc1cc(Nc2ncc3ccn(-c4cc(F)c(CN5CCOCC5)c(F)c4)c3n2)ccc1F [Example 131, [7-(3,5-Difluoro-4-morpholin-4-ylmethyl-phenyl)-7H-pyrrolo[2,3-d]pyrimidin-2-yl]-(4-fluoro-3-methyl-phenyl)-amine] | 7.80 | – | 5.82
23 | Cc1ccc(Nc2ncc3ccn(-c4ccc(C(=O)N5CCOCC5)c(F)c4)c3n2)cn1 [Example 223] | 8.04 | – | 6.34
